Laboratory results from patent US20250066423A1, “SESTRIN-MAPK COMPLEX INHIBITORS” (Sentcell Ltd, priority 2021, published 2025).
Peptide text beside a SMILES is read from it.

How the values were obtained:
Sestrin 2 = biological target: T1, Sestrin 2 (Homo sapiens, UniProt P58004); assay: Proteasomal degradation and ubiquitination of sestrin 2 (MG-132 pre-treatment, immunoprecipitation, immunoblot); assay type: cell-based; parameters: endogenous in cells; host or cells: primary CD4+ T cells from PBMCs of healthy donors
T1 sequence (P58004 1-480): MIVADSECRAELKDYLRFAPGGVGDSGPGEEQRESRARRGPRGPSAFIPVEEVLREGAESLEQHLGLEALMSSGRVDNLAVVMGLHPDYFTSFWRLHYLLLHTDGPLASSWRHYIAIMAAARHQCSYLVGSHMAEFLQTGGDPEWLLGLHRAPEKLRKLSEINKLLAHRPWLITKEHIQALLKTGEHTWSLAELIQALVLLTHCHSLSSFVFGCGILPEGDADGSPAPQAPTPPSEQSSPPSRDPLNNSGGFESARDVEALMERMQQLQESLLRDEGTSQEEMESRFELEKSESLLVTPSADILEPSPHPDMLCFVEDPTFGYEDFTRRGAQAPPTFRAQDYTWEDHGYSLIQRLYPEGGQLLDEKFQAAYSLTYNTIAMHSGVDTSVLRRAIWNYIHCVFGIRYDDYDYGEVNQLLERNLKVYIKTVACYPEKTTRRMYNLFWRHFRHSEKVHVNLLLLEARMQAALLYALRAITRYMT
Description: FIG. 6 illustrates sMAC disruption by DOS46L. (A) CD4+ T cells were purified from PBMCs from healthy donors and treated with DOS46L (10 uM) for the indicated time points. The binding of AMPK to Sestrin 2 was quantified against the total level of Sestrin 2 immunoprecipitated and detected by ELISA. IgG immunoprecipitates served as background control. (B) Cells were pre-treated with proteasome-inhibitor MG-132 (10 uM) for 30 min and subsequently treated with DOS46L (10 uM) for 4 hours. Cells were harvested for immunoblot analysis or proceeded to immunoprecipitation. Levels of Sestrin 2, p38, and AMPK were evaluated by immunoblotting. H3 was used as a loading control. Representative images of 3 experiments are shown. (C) Immunoblot levels of Ubiquitin, Sestrin 2 and Histone 3 in Sestrin 2 immunoprecipitates and their lysates were analysed. Representative images are shown (top). The mean values (bottom) of ubiquitinated proteins in Sestrin 2 immunoprecipitates are shown. Results are presented as a mean±SD of 4 repeated experiments. Student's T-test was used to analyse the data. **p<0.01
• 1. Cell pellet was lysed with 100 μL of denaturing lysis buffer • 2. Then mixed well by vortexing vigorously for 2-3 sec at maximum speed. • 3. Samples were then boiled at 95° C. for 5 min. • 4. Samples were then diluted 900 μl of non-denaturing lysis buffer and mixed gently. • 5. […]

[1] = tested on: T cells (senescent CD3+ CD4+ CD27− CD28− population); conditions: DOS-FITC 10 μM, 4 hrs
Description: (A-B) CD4+ T cells were isolated from peripheral blood mononuclear cells (PBMCs) from healthy donors and treated with DOS compounds. (A) Representative confocal images of CD4+ T cells stained with DOS-FITC and CD3-AF594. (B) Quantification of DOS46L penetration by flow cytometry in CD4+ CD27-CD28-cells (Tsen) and in CD4+CD27+CD28+ (Terl).
Purified T cells were plated at the concentration 1*10^6 cell/well in 24 well plate • 2. Cells were treated with 10 μM of DOS-FITC for 4 hrs • 3. Then collected and centrifuged at 500 g for 5 mins • 4. Washed two times with ice-cold PBS • 5. Cells were resuspended in 200 ul of PBS and plated in a pre-treated coverslip with poly-lysine • 6. Cells were fixed with 4% of formaldehyde in ice for 20 mins • 7. Washed three times with PBS • 8. Blocked with PBS-BSA 5% • 9. Cells were then incubated with primary antibody (anti-CD3 1:100) overnight at 4 C • 10. Washed three times with PBS • 11. Then incubated with secondary antibody (anti-mouse conjugated with AF-594; 1:250) for 1 hr at room temperature • 12. Washed three times with PBS 13. Cells were permeabilized with Triton 0.25% in PBS for 2 mins • 14. Followed incubation with antibody anti-KDEL (Abcam) and anti-sestrin 2 (Gentex) diluted 1:100 at 4 C over-night • 15. Washed for three times with PBS • 16. […]

H1N1 PR8/54 = assay type: in vivo, mice

With `CC[C@H](C)[C@@H]1NC(=O)[C@H](Cc2ccccc2)NC(=O)[C@H](C)NC(=O)[C@H](C(C)C)NC(=O)[C@@H]2CCCN2C1=O` [DOS46L] (cyclo(AFIPV)) as the molecule, how does the “inhibition of sestrin and AMPK after proteasome inhibitor pre-treatment” value (Sestrin 2; MG-132 10 uM 30 min, then DOS46L 10 uM 4 hours) read?
Its value is “vanished”.

What about the “ubiquitinated sestrin 2 immunoprecipitated” value (Sestrin 2; T cells exposed to DOS46L 10 uM, 4 hours) of the same molecule?
Its value is “increased amount”.

What about the cell penetration [1] of the same molecule?
Its cell penetration is “able to penetrate T cells”.

And the “relative effectiveness at low dose” value (H1N1 PR8/54; 0.1. mg/Kg)?
Its value is “more effective at a very low dose”.

What about the “survival data, comparison of compounds” value (H1N1 PR8/54; old mice, vaccination with DOS, H1N1 PR8/54) of the same molecule?
Its value is “similar”.
